Tests used:
Botrytis cinerea = test: Fungicidal (bactericidal) activity in vitro, PDA colony diameter; assay type: cell-based; conditions: 50 mg/kg
Alternaria solani = test: as above; assay type: cell-based; conditions: 50 mg/kg
Phytophthora capsici = test: as above; assay type: cell-based; conditions: 50 mg/kg
cucumber fusarium wilt = test: as above; assay type: cell-based; conditions: 50 mg/kg
Fusarium graminearumt = test: microbe, parasite or virus in culture; assay type: cell-based; conditions: 50 mg/kg
Sclerotinia scleotiorum = test: Fungicidal (bactericidal) activity in vitro, PDA colony diameter; assay type: cell-based; conditions: 50 mg/kg
Rhizoctonia cereali = test: as above; assay type: cell-based; conditions: 50 mg/kg
potato late blight = test: microbe, parasite or virus in culture; assay type: cell-based
Bipolaria maydis = test: organism not typed; assay type: cell-based; conditions: 50 mg/kg
[1] = system: tobacco mosaic virus (TMV); test: Anti-TMV in vivo inactivation; parameters: species or system tobacco mosaic virus (host Nicotiana tabacum L.cv.Xanthi NN)
[2] = system: Colletotrichum orbiculare; test: Fungicidal (bactericidal) activity in vitro, PDA colony diameter; assay type: cell-based; conditions: 50 mg/kg
Cercospora arachidicola = test: as above; assay type: cell-based; conditions: 50 mg/kg
Macrophoma kawatsukai = test: as above; assay type: cell-based; conditions: 50 mg/kg
Rhizoctonia solani = test: as above; assay type: cell-based; conditions: 50 mg/kg
corn borers = conditions: concentration 600 mg/kg
cotton bollworms = test: whole plant or invertebrate; conditions: concentration 600 mg/kg
Protocol: Experimental method of cotton bollworms: feed and drug mixing method: measure 3 mL of prepared solution and add it to about 27 g of newly prepared feed, thereby obtaining needed concentration through dilution by 10 times.

armyworms = assay type: in vivo; conditions: concentration 600 mg/kg
Fusarium fujikuroi = test: Fungicidal (bactericidal) activity in vitro, PDA colony diameter; assay type: cell-based; conditions: 50 mg/kg
[3] = system: tobacco mosaic virus (TMV); test: Anti-TMV in vivo protective effect; parameters: species or system tobacco mosaic virus (host Nicotiana tabacum L.cv.Xanthi NN)
[4] = system: tobacco mosaic virus (TMV); test: Anti-TMV in vivo therapeutic effect; parameters: species or system tobacco mosaic virus (host Nicotiana tabacum L.cv.Xanthi NN)
[5] = system: tobacco mosaic virus (TMV); test: Anti-TMV in vitro effect (half-leaf soaking); assay type: cell-based, tobacco mosaic virus (host Nicotiana tabacum L.cv.Xanthi NN)
mosquito larvae = test: whole plant or invertebrate; conditions: 24 h
Outline: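 Compound dissolved in acetone (or other solvent) to a 1000 ppm stock and diluted in water to 5 ppm. Ten Culex pipiens pallens larvae at the start of the fourth instar, laboratory-reared, added per beaker; solvent-only aqueous control.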

Compound	Bactericidal activity (%) Botrytis cinerea (Botrytis cinerea) [%]	Bactericidal activity (%) Alternaria solani (Alternaria solani) [%]	Bactericidal activity (%) Phytophthora capsici (Phytophthora capsici) [%]	Bactericidal activity (%) Cucumber fusarium wilt (cucumber fusarium wilt) [%]	Bactericidal activity (%) Fusarium graminearumt (Fusarium graminearumt) [%]	Bactericidal activity (%) Sclerotinia scleotiorum (Sclerotinia scleotiorum) [%]	Bactericidal activity (%) Rhizoctonia cereali (Rhizoctonia cereali) [%]	Bactericidal activity (%) potato late blight (potato late blight) [%]	Bactericidal activity (%) Bipolaria maydis (Bipolaria maydis) [%]	Relative inhibition rate (%) In vivo inactivation ([1]; treatment dose 100 μg/mL) [%]	Relative inhibition rate (%) In vivo inactivation ([1]; treatment dose 500 μg/mL) [%]	Bactericidal activity (%) Colletotrichum orbiculare [2] [%]	Bactericidal activity (%) Cercospora arachidicola (Cercospora arachidicola) [%]	Bactericidal activity (%) Macrophoma kawatsukai (Macrophoma kawatsukai) [%]	Bactericidal activity (%) Rhizoctonia solani (Rhizoctonia solani) [%]	Corn borer Mortality (%) (corn borers)	Cotton bollworm Mortality (%) (cotton bollworms)	Armyworm Mortality (%) (armyworms)	Bactericidal activity (%) Fusarium fujikuroi (Fusarium fujikuroi) [%]	Relative inhibition rate (%) In vivo protection ([3]; treatment dose 100 μg/mL) [%]	other results
CCCC=NNC(=O)[C@@H]1Cc2c([nH]c3ccccc23)[C@H](C)N1 [Ic-23, (1S, 3S)—N′-butylidene-1-methyl-2,3,4,9-tetrahydropyridino [3,4-b] indol-3-formylhydrazine]	9.1	45.0	5.3	19.2	6.9	64.7	43.1	20.0	12.0	13.4	47.1	14.8	17.6	69.4	6.6	10	10	15	0.0	11.3	Relative inhibition rate (%) In vivo protection ([3]; treatment dose 500 μg/mL): 40.5%; Relative inhibition rate (%) In vivo therapy ([4]; treatment dose 100 μg/mL): 10.4%; Relative inhibition rate (%) In vivo therapy ([4]; treatment dose 500 μg/mL): 41.3%; Relative inhibition rate (%) In vitro activity ([5]; treatment dose 100 μg/mL): 7.8%; Relative inhibition rate (%) In vitro activity ([5]; treatment dose 500 μg/mL): 32.6%; Mosquito larvae Mortality (%) (mosquito larvae; concentration 10 mg/kg): 35%
CCCCCCCC=NNC(=O)[C@@H]1Cc2c([nH]c3ccccc23)[C@H](C)N1 [Ic-24, (1S, 3S)—N′-octadien-1-methyl-2,3,4,9-tetrahydropyridino [3,4-b] indol-3-formylhydrazine]	44.4	19.0	18.2	9.1	61.5	46.2	29.7	17.4	36.0	32.8	73.4	32.0	36.4	24.2	22.2	50	20	45	35.3	27.3	Relative inhibition rate (%) In vivo protection ([3]; treatment dose 500 μg/mL): 59.6%; Relative inhibition rate (%) In vivo therapy ([4]; treatment dose 100 μg/mL): 31.7%; Relative inhibition rate (%) In vivo therapy ([4]; treatment dose 500 μg/mL): 70.9%; Relative inhibition rate (%) In vitro activity ([5]; treatment dose 100 μg/mL): 23.2%; Relative inhibition rate (%) In vitro activity ([5]; treatment dose 500 μg/mL): 61.3%; Mosquito larvae Mortality (%) (mosquito larvae; concentration 5 mg/kg): 10%; Mosquito larvae Mortality (%) (mosquito larvae; concentration 10 mg/kg): 100%
C[C@@H]1N[C@H](C(=O)NN=CC2CCCCC2)Cc2c1[nH]c1ccccc21 [Ic-25, (1S, 3S)—N′-(cyclohexylmethylene)-1-methyl-2,3,4,9-tetrahydropyridino [3,4-b] indol-3-formylhydrazine]	66.7	19.0	9.1	4.5	30.8	21.2	29.7	17.4	36.0	36.3	75.8	24.0	0.0	33.3	5.6	55	20	45	41.2	25.7	Relative inhibition rate (%) In vivo protection ([3]; treatment dose 500 μg/mL): 69.2%; Relative inhibition rate (%) In vivo therapy ([4]; treatment dose 100 μg/mL): 30.4%; Relative inhibition rate (%) In vivo therapy ([4]; treatment dose 500 μg/mL): 62.8%; Relative inhibition rate (%) In vitro activity ([5]; treatment dose 100 μg/mL): 31.2%; Relative inhibition rate (%) In vitro activity ([5]; treatment dose 500 μg/mL): 59.6%; Mosquito larvae Mortality (%) (mosquito larvae; concentration 5 mg/kg): 10%; Mosquito larvae Mortality (%) (mosquito larvae; concentration 10 mg/kg): 100%
